Consider 14 compounds from ChEMBL document CHEMBL6120980, “Discovery of First Branched-Chain Ketoacid Dehydrogenase Kinase (BDK) Inhibitor Clinical Candidate PF-07328948” (J Med Chem, 2025).

Molecules are shown by their SMILES. pIC50: −log10 of the molar value.

The nature of one data set: physchem. To be noted: octanol/water.
For data set [1] the following is noted: human, hepatocytes, 4 h, 1 µM.
A further data set is described as follows: in vitro. As to conditions: dog, MDCK.
The nature of data set [2]: Drug degradation in phosphate/D2O buffer at pH 7.6 assessed as half-life by H1-NMR analysis. The format is ADME.
Data set [3] can be described thus: Retention time of compound in phosphate buffer at pH 7.4 measured after approximately 150 mins by HPLC-UV analysis. The format is physicochemical.
The conditions of data set [4]: human, hepatocytes, 4 h, 5 µM.
Data set [5] addresses Branched-chain alpha-ketoacid dehydrogenase kinase (Homo sapiens) (UniProt O14874). Put plainly: Potency index, ratio of PF-07208254 IC50 to test compound IC50 for inhibition of BDK in human skeletal myocyte using BCKDHA as substrate assessed as inhibition of substrate phosphorylation incubated for 60 mins by AlphaLISA surefire ultra assay.
Data set [6] has the same target. Nature of the data set: Potency index, ratio of PF-07208254 IC50 to test compound IC50 for inhibition of human BDK using LBD-Tev-PhosphoPep/Lipoyl as substrate preincubated for 15 mins followed by substrate/ATP addition and measured after 90 mins by TR-FRET assay. On the technique in general: TR-FRET usually uses a lanthanide donor and a delayed reading to cut background.

Data set [7] addresses T1, Cytochrome P450 3A4 (Homo sapiens, UniProt P08684). Put plainly: Reversible inhibition of human CYP3A4-mediated testosterone-6beta-hydroxylation in human liver microsomes using testosterone as substrate in presence of NADPH. The format is ADME, Microsome.
Data set [8] addresses UDP-glucuronosyltransferase 1A3 (Homo sapiens, UniProt P35503). Nature of the data set: Drug metabolism assessed as recombinant human UGT1A3-mediated (2S,3S,4S,5R)-6-((6-fluoro-3-(2,4,5-trifluoro-3-methoxyphenyl)benzo[b]thiophene-2-carbonyl)oxy)-3,4,5-trihydroxytetrahydro-2H-pyran-2-carboxylic acid metabolite formation at 1 uM. The format is ADME. As to conditions: recombinant enzyme.

The target in data set [9] is ATP-dependent translocase ABCB1 (Homo sapiens, UniProt P08183). Nature of the data set: Inhibition of human MDR1 expressed in HEK293 cell vesicles using N-methylquinidine as substrate preincubated for 30 mins followed by substrate addition and measured after 1 to 4 mins. In kind it is subcellular, Vesicle.
Data set [10] deals with UDP-glucuronosyltransferase 2B4 (Homo sapiens, UniProt P06133). Nature of the data set: Drug metabolism assessed as recombinant human UGT2B4-mediated (2S,3S,4S,5R)-6-((6-fluoro-3-(2,4,5-trifluoro-3-methoxyphenyl)benzo[b]thiophene-2-carbonyl)oxy)-3,4,5-trihydroxytetrahydro-2H-pyran-2-carboxylic acid metabolite formation at 1 uM. To be noted: recombinant enzyme. The format is ADME.

The target in data set [11] is T1, Cytochrome P450 3A4. Nature of the data set: Reversible inhibition of human CYP3A4-mediated midazolam-1'-hydroxylation in human liver microsomes using midazolam as substrate in presence of NADPH. The format is ADME, Microsome. (In general: Liver microsomes are vesicles of endoplasmic reticulum, rich in cytochrome P450 enzymes.)
The target of data set [12] is Multidrug and toxin extrusion protein 1 (Homo sapiens, UniProt Q96FL8). Put plainly: Inhibition of human MATE1 expressed in HEK293 cells using [14C]metformin as substrate preincubated for 30 mins followed by substrate addition and measured after 1 to 4 mins. The format is cell-based.
For data set [13], the target named is Solute carrier organic anion transporter family member 1B1 (Homo sapiens, UniProt Q9Y6L6). Put plainly: Inhibition of human OATP1B1 expressed in HEK293 cells using rosuvastatin as substrate preincubated for 30 mins followed by substrate addition and measured after 1 to 4 mins. In kind it is cell-based.
Data set [14] has as its target UDP-glucuronosyltransferase 1A9 (Homo sapiens, UniProt O60656). Put plainly: Drug metabolism assessed as recombinant human UGT1A9-mediated (2S,3S,4S,5R)-6-((6-fluoro-3-(2,4,5-trifluoro-3-methoxyphenyl)benzo[b]thiophene-2-carbonyl)oxy)-3,4,5-trihydroxytetrahydro-2H-pyran-2-carboxylic acid metabolite formation at 1 uM. The format is ADME. To be noted: recombinant enzyme.

Data set [15] has as its target Multidrug and toxin extrusion protein 2 (Homo sapiens, UniProt Q86VL8). Put plainly: Inhibition of human MATE2K expressed in HEK293 cells using [14C]metformin as substrate preincubated for 30 mins followed by substrate addition and measured after 1 to 4 mins. In kind it is cell-based.
Data set [16] deals with Organic anion transporter 3 (Homo sapiens, UniProt Q8TCC7). Nature of the data set: Inhibition of human OAT3 expressed in HEK293 cells using estrone-3-sulfate as substrate preincubated for 30 mins followed by substrate addition and measured after 1 to 4 mins. In kind it is cell-based.
The target of data set [17] is UDP-glucuronosyltransferase 1A1 (Homo sapiens, UniProt P22309). Put plainly: Drug metabolism assessed as recombinant human UGT1A1-mediated (2S,3S,4S,5R)-6-((6-fluoro-3-(2,4,5-trifluoro-3-methoxyphenyl)benzo[b]thiophene-2-carbonyl)oxy)-3,4,5-trihydroxytetrahydro-2H-pyran-2-carboxylic acid metabolite formation at 1 uM. In kind it is ADME. To be noted: recombinant enzyme.

Another data set has as its target Cytochrome P450 2D6 (Homo sapiens, UniProt P10635). Put plainly: Reversible inhibition of human CYP2D6-mediated dextromethorphan-O-demethylation in human liver microsomes using dextromethorphan as substrate in presence of NADPH. The format is ADME, Microsome.
A further data set addresses Cytochrome P450 2C9 (Homo sapiens, UniProt P11712). Put plainly: Reversible inhibition of human CYP2C9-mediated diclofenac-4'-hydroxylation in human liver microsomes using diclofenac as substrate in presence of NADPH. The format is ADME, Microsome.
Data set [18] has as its target Branched-chain alpha-ketoacid dehydrogenase kinase (Mus musculus, UniProt O55028). Put plainly: Inhibition of mouse BDK using LBD-Tev-PhosphoPep/Lipoyl as substrate preincubated for 15 mins followed by substrate/ATP addition and measured after 90 mins by TR-FRET assay.
The next data set deals with Cytochrome P450 2B6 (Homo sapiens, UniProt P20813). Nature of the data set: Reversible inhibition of human CYP2B6-mediated bupropion hydroxylation in human liver microsomes using bupropion as substrate in presence of NADPH. In kind it is ADME, Microsome.
Another data set concerns the target Cytochrome P450 2C8 (Homo sapiens, UniProt P10632). Nature of the data set: Reversible inhibition of human CYP2C8-mediated amodiaquine N-dealkylation in human liver microsomes using amodiaquine as substrate in presence of NADPH. In kind it is ADME, Microsome.
The target in data set [19] is UDP-glucuronosyltransferase 2B15 (Homo sapiens, UniProt P54855). Put plainly: Drug metabolism assessed as recombinant human UGT2B15-mediated (2S,3S,4S,5R)-6-((6-fluoro-3-(2,4,5-trifluoro-3-methoxyphenyl)benzo[b]thiophene-2-carbonyl)oxy)-3,4,5-trihydroxytetrahydro-2H-pyran-2-carboxylic acid metabolite formation at 1 uM. In kind it is ADME. To be noted: recombinant enzyme.

The next data set deals with Cytochrome P450 1A2 (Homo sapiens, UniProt P05177). Put plainly: Reversible inhibition of human CYP1A2-mediated phenacetin-O-dealkylation in human liver microsomes using phenacetin as substrate in presence of NADPH. In kind it is ADME, Microsome.
Data set [20] has as its target Solute carrier organic anion transporter family member 1B3 (Homo sapiens, UniProt Q9NPD5). Nature of the data set: Inhibition of human OATP1B3 expressed in HEK293 cells using rosuvastatin as substrate preincubated for 30 mins followed by substrate addition and measured after 1 to 4 mins. In kind it is cell-based.
A further data set has as its target Cytochrome P450 2C19 (Homo sapiens, UniProt P33261). Put plainly: Reversible inhibition of human CYP2C19-mediated S-mephenytoin-4'-hydroxylation in human liver microsomes using S-mephenytoin as substrate in presence of NADPH. The format is ADME, Microsome.
Data set [21] concerns the target Solute carrier family 22 member 1 (Homo sapiens, UniProt O15245). Put plainly: Inhibition of human OCT1 expressed in HEK293 cells using [14C]metformin as substrate preincubated for 30 mins followed by substrate addition and measured after 1 to 4 mins. In kind it is cell-based.
The next data set has as its system Cytochrome P450. Put plainly: Drug metabolism in human hepatocytes assessed as CYP450-catalyzed o-demethylation mediated 6-fluoro-3-(2,4,5-trifluoro-3-hydroxyphenyl)benzo[b]thiophene-2-carboxylic acid metabolite formation by mass spectrometric analysis. In kind it is ADME, cell-based, Hepatocyte.
The next data set addresses Cytochrome P450 3A5 (Homo sapiens, UniProt P20815). Nature of the data set: Reversible inhibition of human CYP3A5-mediated nifedipine oxidation in human liver microsomes using nifedipine as substrate in presence of NADPH. In kind it is ADME, Microsome.
For data set [22], the target named is Solute carrier family 22 member 6 (Homo sapiens, UniProt Q4U2R8). Nature of the data set: Inhibition of human OAT1 expressed in HEK293 cells using p-aminohippuric acid as substrate preincubated for 30 mins followed by substrate addition and measured after 1 to 4 mins. In kind it is cell-based.
In data set [23] the target is Solute carrier family 22 member 2 (Homo sapiens, UniProt O15244). Nature of the data set: Inhibition of human OCT2 expressed in HEK293 cells using [14C]metformin as substrate preincubated for 30 mins followed by substrate addition and measured after 1 to 4 mins. The format is cell-based.

T1 sequence (P08684 whole entry): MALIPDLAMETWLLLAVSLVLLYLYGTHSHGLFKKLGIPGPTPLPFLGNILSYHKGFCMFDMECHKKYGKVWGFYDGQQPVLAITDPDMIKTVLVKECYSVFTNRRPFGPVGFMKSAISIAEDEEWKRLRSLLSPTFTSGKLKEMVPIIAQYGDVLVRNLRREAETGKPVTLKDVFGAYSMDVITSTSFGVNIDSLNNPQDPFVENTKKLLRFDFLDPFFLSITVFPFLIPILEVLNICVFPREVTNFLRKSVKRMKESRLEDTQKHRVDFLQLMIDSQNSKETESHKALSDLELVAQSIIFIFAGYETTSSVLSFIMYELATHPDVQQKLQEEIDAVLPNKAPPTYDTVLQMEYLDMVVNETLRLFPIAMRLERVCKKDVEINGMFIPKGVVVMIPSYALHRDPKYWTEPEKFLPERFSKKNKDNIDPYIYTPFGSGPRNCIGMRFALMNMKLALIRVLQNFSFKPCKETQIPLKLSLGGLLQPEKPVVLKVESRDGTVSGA
Sequence of Cytochrome P450 2C8 (P10632 whole entry): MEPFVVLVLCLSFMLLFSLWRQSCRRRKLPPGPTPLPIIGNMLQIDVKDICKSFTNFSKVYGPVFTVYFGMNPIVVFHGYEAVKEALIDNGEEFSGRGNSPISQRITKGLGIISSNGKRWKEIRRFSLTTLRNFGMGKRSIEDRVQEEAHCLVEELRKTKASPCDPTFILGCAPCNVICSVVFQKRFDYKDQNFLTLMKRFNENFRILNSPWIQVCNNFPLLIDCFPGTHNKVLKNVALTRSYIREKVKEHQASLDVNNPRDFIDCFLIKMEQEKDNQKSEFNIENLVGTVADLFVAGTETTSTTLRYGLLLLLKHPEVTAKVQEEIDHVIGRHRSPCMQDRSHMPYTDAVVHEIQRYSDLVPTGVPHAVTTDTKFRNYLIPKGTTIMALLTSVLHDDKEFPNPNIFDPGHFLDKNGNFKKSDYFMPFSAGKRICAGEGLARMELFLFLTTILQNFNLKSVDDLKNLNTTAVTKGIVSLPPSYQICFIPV
Sequence of UDP-glucuronosyltransferase 1A1 (P22309 whole entry): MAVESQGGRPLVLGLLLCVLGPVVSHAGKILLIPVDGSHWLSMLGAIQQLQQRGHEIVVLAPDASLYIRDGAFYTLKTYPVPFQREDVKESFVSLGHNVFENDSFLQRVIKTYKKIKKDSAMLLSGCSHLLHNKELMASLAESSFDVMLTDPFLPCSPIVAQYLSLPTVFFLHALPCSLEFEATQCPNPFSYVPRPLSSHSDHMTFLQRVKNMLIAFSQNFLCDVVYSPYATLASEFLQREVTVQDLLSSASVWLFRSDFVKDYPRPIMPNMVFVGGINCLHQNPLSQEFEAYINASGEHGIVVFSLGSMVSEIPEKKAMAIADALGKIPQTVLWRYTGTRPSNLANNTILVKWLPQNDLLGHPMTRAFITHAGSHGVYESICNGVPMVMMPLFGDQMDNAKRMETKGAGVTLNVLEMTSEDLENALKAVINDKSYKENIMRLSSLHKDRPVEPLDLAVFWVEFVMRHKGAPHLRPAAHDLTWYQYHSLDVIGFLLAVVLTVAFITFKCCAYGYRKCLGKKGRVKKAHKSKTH
Sequence of UDP-glucuronosyltransferase 2B15 (P54855 whole entry): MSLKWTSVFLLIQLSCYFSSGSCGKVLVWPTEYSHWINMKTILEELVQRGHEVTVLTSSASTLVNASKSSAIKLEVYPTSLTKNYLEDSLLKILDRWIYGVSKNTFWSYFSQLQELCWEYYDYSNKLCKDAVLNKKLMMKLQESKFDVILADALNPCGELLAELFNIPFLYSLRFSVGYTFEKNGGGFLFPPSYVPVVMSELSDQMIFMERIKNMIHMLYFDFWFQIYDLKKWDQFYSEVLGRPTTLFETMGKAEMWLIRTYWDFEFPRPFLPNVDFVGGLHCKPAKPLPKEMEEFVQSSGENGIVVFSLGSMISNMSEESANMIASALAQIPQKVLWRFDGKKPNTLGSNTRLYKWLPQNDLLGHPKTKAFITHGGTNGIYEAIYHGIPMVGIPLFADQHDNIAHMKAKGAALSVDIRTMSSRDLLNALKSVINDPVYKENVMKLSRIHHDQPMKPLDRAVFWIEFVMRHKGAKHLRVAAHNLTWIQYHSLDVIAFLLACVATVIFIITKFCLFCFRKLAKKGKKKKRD
Sequence of Multidrug and toxin extrusion protein 1 (Q96FL8 whole entry): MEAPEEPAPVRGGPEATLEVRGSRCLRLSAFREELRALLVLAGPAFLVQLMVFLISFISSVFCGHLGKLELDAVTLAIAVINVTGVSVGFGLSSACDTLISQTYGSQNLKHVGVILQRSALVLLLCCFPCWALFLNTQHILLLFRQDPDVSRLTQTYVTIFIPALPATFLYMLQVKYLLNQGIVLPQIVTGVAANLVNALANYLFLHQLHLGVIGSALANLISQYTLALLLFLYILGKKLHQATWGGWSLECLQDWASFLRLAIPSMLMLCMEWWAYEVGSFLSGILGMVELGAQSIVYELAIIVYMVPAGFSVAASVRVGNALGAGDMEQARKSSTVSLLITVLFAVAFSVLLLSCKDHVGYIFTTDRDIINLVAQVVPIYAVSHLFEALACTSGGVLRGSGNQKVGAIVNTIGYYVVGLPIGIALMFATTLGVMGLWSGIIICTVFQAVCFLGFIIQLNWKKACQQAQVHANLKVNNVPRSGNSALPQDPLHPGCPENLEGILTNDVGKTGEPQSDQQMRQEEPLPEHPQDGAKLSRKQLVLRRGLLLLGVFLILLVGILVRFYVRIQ
Sequence of Solute carrier family 22 member 6 (Q4U2R8 whole entry): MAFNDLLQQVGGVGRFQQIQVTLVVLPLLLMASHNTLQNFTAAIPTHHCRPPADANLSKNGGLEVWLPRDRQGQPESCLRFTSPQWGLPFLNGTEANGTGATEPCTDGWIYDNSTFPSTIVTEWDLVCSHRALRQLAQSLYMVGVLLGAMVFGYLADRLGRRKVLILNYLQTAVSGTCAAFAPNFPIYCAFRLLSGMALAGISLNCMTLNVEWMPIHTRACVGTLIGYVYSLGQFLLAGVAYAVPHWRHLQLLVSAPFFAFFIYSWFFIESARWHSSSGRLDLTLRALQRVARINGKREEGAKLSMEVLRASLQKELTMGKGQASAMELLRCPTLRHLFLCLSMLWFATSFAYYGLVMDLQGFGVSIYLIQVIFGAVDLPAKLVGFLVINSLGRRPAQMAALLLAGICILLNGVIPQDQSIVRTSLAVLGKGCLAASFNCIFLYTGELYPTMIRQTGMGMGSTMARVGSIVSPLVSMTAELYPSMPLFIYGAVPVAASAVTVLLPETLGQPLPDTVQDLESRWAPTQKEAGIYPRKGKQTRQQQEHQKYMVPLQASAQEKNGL
Sequence of Solute carrier organic anion transporter family member 1B3 (Q9NPD5 whole entry): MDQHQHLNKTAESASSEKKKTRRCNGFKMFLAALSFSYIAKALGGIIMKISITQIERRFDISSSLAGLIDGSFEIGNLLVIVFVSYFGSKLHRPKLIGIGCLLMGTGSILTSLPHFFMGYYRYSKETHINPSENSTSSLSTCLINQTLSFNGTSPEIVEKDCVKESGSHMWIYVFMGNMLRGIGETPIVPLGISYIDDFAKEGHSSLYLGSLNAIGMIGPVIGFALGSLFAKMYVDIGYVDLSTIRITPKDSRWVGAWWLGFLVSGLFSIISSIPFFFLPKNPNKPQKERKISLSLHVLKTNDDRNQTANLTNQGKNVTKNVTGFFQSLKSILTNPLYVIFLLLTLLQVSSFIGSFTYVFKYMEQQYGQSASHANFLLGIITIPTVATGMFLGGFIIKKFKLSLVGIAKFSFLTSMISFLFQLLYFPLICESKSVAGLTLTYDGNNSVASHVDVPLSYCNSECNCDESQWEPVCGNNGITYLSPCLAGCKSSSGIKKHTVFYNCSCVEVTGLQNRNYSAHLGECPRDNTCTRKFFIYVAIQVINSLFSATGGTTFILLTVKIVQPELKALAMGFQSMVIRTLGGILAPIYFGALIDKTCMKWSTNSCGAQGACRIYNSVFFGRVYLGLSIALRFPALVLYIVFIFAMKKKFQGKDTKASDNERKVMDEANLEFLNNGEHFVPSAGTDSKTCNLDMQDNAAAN
Sequence of Solute carrier organic anion transporter family member 1B1 (Q9Y6L6 whole entry): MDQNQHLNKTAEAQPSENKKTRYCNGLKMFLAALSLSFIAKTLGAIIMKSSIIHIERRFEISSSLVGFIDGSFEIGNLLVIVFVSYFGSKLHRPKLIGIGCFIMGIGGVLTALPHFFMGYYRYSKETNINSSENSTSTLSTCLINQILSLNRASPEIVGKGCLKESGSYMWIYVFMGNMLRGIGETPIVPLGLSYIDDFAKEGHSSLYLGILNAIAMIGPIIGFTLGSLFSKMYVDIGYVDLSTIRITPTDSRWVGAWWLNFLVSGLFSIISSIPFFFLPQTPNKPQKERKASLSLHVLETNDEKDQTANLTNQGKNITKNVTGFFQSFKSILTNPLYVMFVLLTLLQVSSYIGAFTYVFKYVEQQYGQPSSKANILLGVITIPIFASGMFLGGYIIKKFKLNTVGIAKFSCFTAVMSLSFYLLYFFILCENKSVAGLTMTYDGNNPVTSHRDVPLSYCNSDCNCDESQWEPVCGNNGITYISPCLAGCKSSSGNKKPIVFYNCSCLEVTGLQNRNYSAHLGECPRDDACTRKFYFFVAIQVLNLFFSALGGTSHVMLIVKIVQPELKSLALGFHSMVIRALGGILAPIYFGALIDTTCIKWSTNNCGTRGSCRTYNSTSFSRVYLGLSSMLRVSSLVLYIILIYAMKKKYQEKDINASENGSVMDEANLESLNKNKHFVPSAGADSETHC

`O=C(O)c1sc2cc(F)ccc2c1Cl` yielded a logD in the data set “physchem” of 0.5. The “CLH(app)” value in data set [1] is less than 2 µL/min. The compound also gave a Papp A→B in “in vitro” of 30 ×10⁻⁶ cm/s.
For `O=C(O)c1sc2cc(F)ccc2c1-c1cc(F)c(F)cc1F`, in that order: 1.3, 23 µL/min and 10 ×10⁻⁶ cm/s.
As to `O=C(O)c1sc2cc(F)ccc2c1-c1ccccc1`, the logD in “physchem” was 1.1. Also, the “CLH(app)” value in data set [1] came out at 31 µL/min.
Compound `COc1c(F)ccc(-c2c(C(=O)O)sc3cc(F)ccc23)c1F` showed a logD in the data set “physchem” of 1.1. In addition, the “CLH(app)” value in data set [1] was 26 µL/min. This compound also yielded a Papp A→B in “in vitro” of 26 ×10⁻⁶ cm/s.
The matching figures for `COc1cccc(-c2c(C(=O)O)sc3cc(F)ccc23)c1F`: 1, 23 µL/min and 28 ×10⁻⁶ cm/s.
Turning to `COc1cccc(-c2c(C(=O)O)sc3cc(F)ccc23)c1`, in the data set “physchem”, the pH-dependent lipophilicity (logD) came out at 1.4. Besides, the “CLH(app)” value in data set [1] is 32 µL/min. The compound further gave an apical-to-basolateral permeability (Papp A→B) in the data set “in vitro” of 8.5 ×10⁻⁶ cm/s.
The matching figures for `O=C(O)c1sc2cc(Cl)ccc2c1Cl`: 0.7, 5.2 µL/min and 31 ×10⁻⁶ cm/s.
`Cc1c(F)c(F)cc(-c2c(C(=O)O)sc3cc(F)ccc23)c1F` showed a pH-dependent lipophilicity (logD) in “physchem” of 1.6. In the data set “in vitro”, the apical-to-basolateral permeability (Papp A→B) is 11 ×10⁻⁶ cm/s.
For the compound `COc1c(F)c(F)cc(-c2c(C(=O)OC3O[C@H](C(=O)O)[C@@H](O)[C@H](O)[C@H]3O)sc3cc(F)ccc23)c1F` (some centres undefined), in data set [2], the half-life was approximately 1.37 h. In data set [3], this compound had a Retention_time of 17.6 min.
In turn, `O=C(O)c1sc2cc(F)sc2c1Cl` came in with a logD in “physchem” of 0.1. Besides, in [1], the “CLH(app)” value was less than 2.7 µL/min. Moreover, the Papp A→B in “in vitro” turned out to be 14 ×10⁻⁶ cm/s. The same compound displayed a PB in data set [4] of 103 pmol.
In the case of `COc1c(F)cc(F)c(-c2c(C(=O)O)sc3cc(F)ccc23)c1F`, the Ratio IC50 in data set [5] was 36; in [6], 7. For the same compound, the pH-dependent lipophilicity (logD) in the data set “physchem” is 1. The “CLH(app)” value in [1] stood at 21 µL/min. The same compound showed a Papp A→B in “in vitro” of 20 ×10⁻⁶ cm/s.
Regarding `COc1c(F)c(F)cc(-c2c(C(=O)O)sc3cc(F)ccc23)c1F`, the pIC50 on Cytochrome P450 3A4 [7] is less than 4.00; in data set [9], less than 4.10; at Cytochrome P450 3A4 [11], less than 4.00; in data set [12], less than 4.10; in [13], 5.35; in [15], less than 4.10. For the same compound, the pIC50 in data set [16] was 6.17; at Cytochrome P450 2D6 it was less than 4.00; on Cytochrome P450 2C9, 6.00; in data set [18], 7.39; on Cytochrome P450 2B6, 5.17; at Cytochrome P450 2C8, 4.63. Further, the negative-log IC50 (pIC50) at Cytochrome P450 1A2 was 5.96; in data set [20], less than 4.10; on Cytochrome P450 2C19, less than 4.00; in [21] it was less than 4.10; at Cytochrome P450 3A5, less than 4.00; in [22] it was 5.48. This compound also gave a pIC50 in data set [23] of less than 4.10. Besides, the Drug metabolism entry (in [8]; in [10]; in [14]; in [17]; in data set [19]; with Cytochrome P450) was “metabolite_detected” each time.
`CCc1c(F)c(F)cc(-c2c(C(=O)O)sc3cc(F)ccc23)c1F` came in with a logD in the data set “physchem” of 2.2. In addition, in data set [1], the “CLH(app)” value is 52 µL/min. This compound yielded an apparent permeability from apical to basolateral (Papp A→B) in “in vitro” of 11 ×10⁻⁶ cm/s.
The matching figures for `CCOc1c(F)ccc(-c2c(C(=O)O)sc3cc(F)ccc23)c1F`: 1.5, 43 µL/min and 16 ×10⁻⁶ cm/s.

As usually defined, the logD is the decadic logarithm of the distribution of all forms, ionised or not, between an organic phase and buffer at a given pH. Lower therefore signals lower lipophilicity. The term Papp A→B denotes the apparent permeability from the apical to the basolateral side of a cell layer. A low value points to slow passage. The term half-life denotes the time needed for the level to fall by half in the phase considered. For orientation: pIC50 means the IC50 on a negative log10 scale, so that one unit is a factor of ten.
